From paper PMC10447463, “Data-mining unveils structure–property–activity correlation of viral infectivity enhancing self-assembling peptides” (Nature Communications, 2023)

Experiment: Aggregate analysis by widefield fluorescence microscopy
Assay type: physicochemical
Details: for Number of Aggregates / Aggregate Number: ThT-stained aggregates > 10 µm2 in 1330 µm × 1330 µm, 1 mg/mL 1 d, diluted to 0.1 mg/mL with 50 µM ThT, 3D object counter ImageJ, triplicate
Protocol: 4 µL of 1 mg/mL peptide fibrils solution is added to a 20 µL, 50 µM ThT–solution in PBS. The mixture is incubated for 15 min at RT to allow binding of ThT dye with β–sheet rich structures. For reference PBS (4 µL) was added instead of peptide fibril solution. The samples were placed in black UV Star® 384 microliter well–plates (Greiner bio–one). Fluorescence spectra were recorded on an Infinite® M1000 PRO microplate reader (Tecan) at λem = 488 nm upon excitation at λex = 440 nm with 10 nm bandwidths and multiple reads per well (3×3). Measurements were repeated in triplicates and averaged with standard deviation. A peptide fibril was considered as ThT-active if the fluorescence intensity was at least twice as strong compared to the control (PBS containing 10% DMSO). Zeta-Potential. For the determination of the surface charge of aggregated peptides zeta-potential measurements were conducted with a Zetasizer Nano ZS, Malvern Instruments. Unless stated otherwise the peptides were dissolved from DMSO (10 mg/mL) in PBS (pH 7.4) to concentration of 1 mg/mL and incubated for 1d at RT. Just before the measurement the 60 µL of the peptides were further diluted in 600 µL KCl (aq, 1 mM) in a 1 mL disposable folded capillary cells (DTS–1060, Zetasizer Nano series, Malvern). The zeta potential of the peptides was derived from the electrophoretic mobility based on the Smoluchowski formula. All measurements were averaged over two individually performed experiments and conducted in triplicates for each sample. Aggregate analysis. […] Furthermore, fluorescence microscopy was conducted by staining 1 µL preformed fibrils (1 mg/mL) with 9 µL ThT (50 µM). Brightfield microscopy was performed simultaneously to evaluate aggregation also for non ThT-active fibrils. The measurements were performed on a Leica DMi8 microscope with 10x air objective and equipped with a Leica MC170 HD camera with a filter setting λem = 527/30 nm upon excitation at λex = 480/40 nm) and processed with the Leica LASX software. To quantify size and number of microscopic aggregation of particles > 10 µm^2 at least 3 independently measured images were analyzed via the 3D object counter analysis tool of ImageJ, v 1.53f51. Sum–frequency generation. The SFG experiments were carried out with a femtosecond Ti: Sapphire amplified laser system (Spitfire Ace, Spectra–Physics, 800 nm, 40 fs, 1 kHz) with 5 W output power. We used 2 W to pump an optical parametric amplifier (TOPAS, light conversion) with a non–collinear difference frequency generation stage to generate broadband IR pulses. Another 1 W of the laser output passed through an etalon to generate narrowband visible pulses (10 cm^-1). The incident angles of the visible and IR beams were 36° and 41° with respect to the surface normal, respectively. The visible (13 µJ) and IR (5 µJ) pulses were overlapped spatially and temporally at the sample position. Subsequently, the generated SFG pulse was guided into a spectrograph (Acton SP 300i, Princeton Instruments), and detected with an EMCCD (Newton, Andor Technology). To avoid IR absorption of water vapor, we purged N2 for the measurement. All spectra were collected in the ssp (denoting s-, s- and p-polarized SFG, visible and IR, respectively) polarization combination. The spectra were normalized to the non–resonant signal taken from z–cut quartz after subtracting a background spectrum.
Table S8 Summary of aggregate analysis from widefield microscopy measurements (Figure S32). The Number of aggregated peptides, the median size area, average size area
and the cumulative total size area of all particles (> 10 µm2) in an area of 1330 µm × 1330 µm was determined via automated 3D object counting (ImageJ) in triplicate
measurements (Std. Dev.).
Aggregate Std. Dev. Std. Dev. Std. Dev. Std. Dev.
Sequence Abs. Inf. / Std. Dev. / Count Rate / Std. Dev. Number Aggregate Median Area Median Area Average Area Average Area Total Area/ Total Area/ […]

CHLHLQL
Number of Aggregates / Aggregate Number: 36

QCKIKIQINMWQ
Number of Aggregates / Aggregate Number: 398

CKFKFQF
Number of Aggregates / Aggregate Number: 128
Log10 Number Aggregates (logarithm of averaged number of aggregates in 1330 µm × 1330 µm): 2.108

KIKQIIN
Number of Aggregates / Aggregate Number: 12

KIKQIINMWQ
Number of Aggregates / Aggregate Number: 39

KFKFQFNMWQ
Number of Aggregates / Aggregate Number: 64

KWKWQW
Number of Aggregates / Aggregate Number: 28

CKFKFQFNM
Number of Aggregates / Aggregate Number: 170

HIHIQIC
Number of Aggregates / Aggregate Number: 33

QCKIKQIINMWQ [reference compound]
Avg Area in 3 *(1330 µm *1330 µm) (Fig S8 panels A, C): 71.85
Log 10 Number of aggregates in 3 * (1330 µm *1330 µm) (Fig S8 panels A, C): 2.611
Median Area in 3 * (1330 µm *1330 µm) (Fig S8 panels A, C): 27.89
log Avg Area in 3 * ( (1330 µm *1330 µm)) (Fig S8 panels A, C): 1.856
log Median Area in 3 * ( (1330 µm *1330 µm)) (Fig S8 panels A, C): 1.445
log Total Area of all particles in 3 * (1330 µm *1330 µm) (Fig S8 panels A, C): 4.467
Number of aggregates in 3 * (1330 µm *1330 µm) (Fig S8 panels A, C, 3 fields of 1330 µm x 1330 µm): 408
Avg Area in 3 *(1330 µm *1330 µm) (Fig S8 panels B, D, average aggregate area, 3 fields of 1330 µm x 1330 µm): 71.85
Median Area in 3 * (1330 µm *1330 µm) (Fig S8 panels B, D, median aggregate area, 3 fields of 1330 µm x 1330 µm): 27.89
Total Area of all particles in 3 * (1330 µm *1330 µm) (Fig S8 panels B, D, total area of all particles, 3 fields of 1330 µm x 1330 µm): 29314.25467
Number of aggregates in 3 * (1330 µm *1330 µm) (Fig S8 panels B, D, widefield fluorescence microscopy, 3 fields of 1330 µm x 1330 µm): 408
Number of Aggregates / Aggregate Number: 408

CKWKWQW
Number of Aggregates / Aggregate Number: 87
